Measured values as given in patent US20240262845A1, “PYRIDINIUM SALTS, METHODS OF MAKING, AND METHODS OF USE” (UNIVERSITY OF WYOMING, priority 2023, published 2024).
“Also recorded” adds a separate entry of the source. Structures can show the parent of a compound that is named as a salt.

Key:
[1] = target: T1, chymotrypsinogen (Bos taurus, UniProt P00766); assay: Photochemical labeling of chymotrypsinogen with pyridinium salt (General Procedure B, LC/MS); assay type: biochemical, bovine; settings: trypsin digest
T1 construct: α-Chymotrypsinogen A from bovine pancreas; purchased Sigma Aldrich; host or cells: bovine pancreas
Method: General Procedure B: Photochemical Irradiation of Peptides and Proteins: To a 2 mL Pyrex LC/MS vial (Thermo model #03-391-39) were sequentially added solutions containing the desired biomolecule, glutathione (GSH), pyridinium salt, and ammonium acetate (NH4OAc). The resulting solution was diluted to a final volume of 500 μL and then sparged using nitrogen for a minimum of 30 minutes prior to irradiation. The actively sparging solution was then placed in an EvoluChem™ PhotoRedOx Box photoreactor that was equipped with a Kessil, PR160 427 nm LED Lamp and was then irradiated (100% lamp intensity) for the designated time at room temperature while maintaining active sparging. The resultant reaction mixture was then analyzed directly by LC/MS. Analysis of labeling outcomes using LC/MS was performed either by extracted ion chromatogram intensities (method A) or by integrating the area under the peaks associated with peptide content (method B). These values were totaled, and estimated percentages were assigned according to relative intensities of peaks or ion counts.
Labeling of Chymotrypsinogen with pyridinium salt 2a (Chymotrypsinogen-2a Conjugate). […] The reaction mixture was directly analyzed by LC/MS using method A and was estimated to have proceeded with 90% conversion with a 20.7:8.3:1 mono:di:tri labeled ratio and 4% glutathionylation of all unlabeled and labeled protein content. […]

[2] = target: T2, recombinant NPM1 C-terminal domain (residues 240-294) (Homo sapiens, UniProt P06748); assay: In vitro NPM1 C-terminal domain labeling (Western blot); assay type: biochemical; settings: 10 μM NPM1, 100 μM probe, 100 μM glutathione, HEPES pH 7.5, about 440 nm, 15 min
T2 construct: 6×His (N, cleaved yes); made in house; host or cells: NiCo21(DE3) E. coli
T2 sequence (P06748 240-294): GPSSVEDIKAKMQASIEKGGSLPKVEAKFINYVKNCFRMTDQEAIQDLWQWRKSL
Method: In vitro NPM1 C-terminal domain labeling and characterization: Labeling of recombinant NPM1 with the pyridinium salt 2b was performed with the following conditions: 10 μM NPM1 was treated with DMSO or 100 μM pyridinium salt 2b (2% DMSO) in 50 mM HEPES pH 7.5, 150 mM NaCl, 1.5 mM MgCl2, and 100 μM glutathione (GSH). Samples were irradiated at 450 nm (Kessil PR160L-440) at 100% intensity for 15 minutes at room temperature or 50° C. The reaction mixture was quenched with the addition of 4X LDS buffer (Invitrogen) containing 10 mM DTT (Pierce) and boiled for 10 minutes before resolving proteins on 4-12% Bis-Tris NuPAGE gels (Invitrogen), transferred onto a Trans-Blot Turbo Mini 0.2 μm nitrocellulose membrane (BioRad), blocked with 5% BSA in tris-buffered saline with Tween-20 (TBST), and incubated with HRP-linked anti-biotin (Cell Signaling Technology, #7075).

Western analysis of construct labeling [2] | Compound | Modified Trp [1]
 | COC(=O)N(C)[n+]1c(C)cc(-c2ccc3cc(OC)ccc3c2)cc1C [pyridinium salt 2a, 1-((methoxycarbonyl)(methyl)amino)-4-(6-methoxynapthalen-2-yl)-2,6-dimethylpyridin-1-ium tetrafluoroborate] | Trp-215; also recorded: Trp-237
photo-dependent labeling | COc1ccc2cc(-c3cc(C)[n+](N(C)C(=O)OCCCCC[C@H]4SC[C@H]5NC(=O)N[C@H]54)c(C)c3)ccc2c1 (stereo in doubt) [pyridinium salt 2b, 4-(6-methoxynaphthalen-2-yl)-2,6-dimethyl-1-(methyl(((5-((3aR,4R,6aS)-2-oxohexahydro-1H-thieno[3,4-d]imidazol-4-yl)pentyl)oxy)carbonyl)amino)pyridin-1-ium tetrafluoroborate] | 
